In patent publication US8362031B2, “Lonidamine analogues and treatment of polycystic kidney disease” (University of Kansas, priority 2004, dated 2013):

System: male rats
Experiment: Fertility trials following oral administration (challenge mating)
Assay type: in vivo, rat
Conditions: for MALES MATED/MALES FERTILE: Table 9C
Protocol: The following table illustrates the results of a single oral does of 6 mg/kg of RC-MC-110 orally to male rats. […] The ethyl alcohol was evaporated 10% prior to administration. The “embryos normal” and “embryos abnormal” represents the mean number of embryos per pregnant female. […]
The following table illustrates the results of a single oral does of four different doses of RC-MC-110 orally to male rats.

[1] = Table 9A, seven consecutive daily oral doses of 6 mg/day, week 1
[2] = Table 9A, seven consecutive daily oral doses of 6 mg/day, week 2
[3] = Table 9A, seven consecutive daily oral doses of 6 mg/day, week 3
[4] = Table 9A, seven consecutive daily oral doses of 6 mg/day, week 4
[5] = Table 9A, seven consecutive daily oral doses of 6 mg/day, week 5
[6] = Table 9A, seven consecutive daily oral doses of 6 mg/day, week 6
[7] = Table 9A, seven consecutive daily oral doses of 6 mg/day, week 7
[8] = Table 9A, seven consecutive daily oral doses of 6 mg/day, week 8
[9] = Table 9A, seven consecutive daily oral doses of 6 mg/day, week 9
[10] = Table 9A, seven consecutive daily oral doses of 6 mg/day, week 10
[11] = Table 9A, seven consecutive daily oral doses of 6 mg/day, week 12
[12] = Table 9A, seven consecutive daily oral doses of 6 mg/day, week 13
[13] = Table 9A, seven consecutive daily oral doses of 6 mg/day, week 14
[14] = Table 9A, seven consecutive daily oral doses of 6 mg/day, week 18
[15] = Table 9B, single oral dose of 6 mg/kg, week 1
[16] = Table 9B, single oral dose of 6 mg/kg, week 2
[17] = Table 9B, single oral dose of 6 mg/kg, week 3
[18] = Table 9B, single oral dose of 6 mg/kg, week 4
[19] = Table 9B, single oral dose of 6 mg/kg, week 5
[20] = Table 9B, single oral dose of 6 mg/kg, week 6
[21] = Table 9B, single oral dose of 6 mg/kg, week 7
[22] = Table 9B, single oral dose of 6 mg/kg, week 8
[23] = Table 9B, single oral dose of 6 mg/kg, week 9
[24] = Table 9B, single oral dose of 6 mg/kg, week 10
[25] = Table 9B, single oral dose of 6 mg/kg, week 12
[26] = Table 9B, single oral dose of 6 mg/kg, week 13
[27] = Table 9B, single oral dose of 6 mg/kg, week 14
[28] = Table 9B, single oral dose of 6 mg/kg, week 18
[29] = Table 9B, single oral dose of 6 mg/kg, week 26

## O=C(O)/C=C/c1nn(Cc2ccc(Cl)cc2Cl)c2cc(C(F)(F)F)ccc12 [RC-MC-110, trans 3-[1-(2,4-dichlorobenzyl)-6-trifluoromethyl-1H-indazol-3-yl]-acrylic acid]
[1]
  Embryos abnormal (mean number per pregnant female): 0.2
  Embryos normal (mean number per pregnant female): 15
Table 9A, seven consecutive daily oral doses of 6 mg/day, week 1, 7 males mated
  Males fertile: 7
[2]
  Embryos abnormal (mean number per pregnant female): 0.3
  Embryos normal (mean number per pregnant female): 13
Table 9A, seven consecutive daily oral doses of 6 mg/day, week 2, 7 males mated
  Males fertile: 7
[3]
  Embryos abnormal (mean number per pregnant female): 0
  Embryos normal (mean number per pregnant female): 7
Table 9A, seven consecutive daily oral doses of 6 mg/day, week 3, 7 males mated
  Males fertile: 2
[4]
  Embryos abnormal (mean number per pregnant female): 0.5
  Embryos normal (mean number per pregnant female): 7
Table 9A, seven consecutive daily oral doses of 6 mg/day, week 4, 7 males mated
  Males fertile: 3
[5]
  Embryos abnormal (mean number per pregnant female): 0
  Embryos normal (mean number per pregnant female): 0
Table 9A, seven consecutive daily oral doses of 6 mg/day, week 5, 7 males mated
  Males fertile: 0
[6]
  Embryos abnormal (mean number per pregnant female): 0
  Embryos normal (mean number per pregnant female): 0
Table 9A, seven consecutive daily oral doses of 6 mg/day, week 6, 7 males mated
  Males fertile: 0
[7]
  Embryos abnormal (mean number per pregnant female): 0
  Embryos normal (mean number per pregnant female): 0
Table 9A, seven consecutive daily oral doses of 6 mg/day, week 7, 7 males mated
  Males fertile: 0
[8]
  Embryos abnormal (mean number per pregnant female): 0
  Embryos normal (mean number per pregnant female): 0
Table 9A, seven consecutive daily oral doses of 6 mg/day, week 8, 6 males mated
  Males fertile: 0
[9]
  Embryos abnormal (mean number per pregnant female): 1
  Embryos normal (mean number per pregnant female): 9
Table 9A, seven consecutive daily oral doses of 6 mg/day, week 9, 7 males mated
  Males fertile: 1
[10]
  Embryos abnormal (mean number per pregnant female): 0
  Embryos normal (mean number per pregnant female): 2
Table 9A, seven consecutive daily oral doses of 6 mg/day, week 10, 7 males mated
  Males fertile: 1
[11]
  Embryos abnormal (mean number per pregnant female): 0.3
  Embryos normal (mean number per pregnant female): 14
Table 9A, seven consecutive daily oral doses of 6 mg/day, week 12, 7 males mated
  Males fertile: 2
[12]
  Embryos abnormal (mean number per pregnant female): 0.3
  Embryos normal (mean number per pregnant female): 15
Table 9A, seven consecutive daily oral doses of 6 mg/day, week 13, 7 males mated
  Males fertile: 2
[13]
  Embryos abnormal (mean number per pregnant female): 0
  Embryos normal (mean number per pregnant female): 14
Table 9A, seven consecutive daily oral doses of 6 mg/day, week 14, 7 males mated
  Males fertile: 2
[14]
  Embryos abnormal (mean number per pregnant female): 0
  Embryos normal (mean number per pregnant female): 14
Table 9A, seven consecutive daily oral doses of 6 mg/day, week 18, 7 males mated
  Males fertile: 2
[15]
  Embryos abnormal (mean number per pregnant female): 0.2
  Embryos normal (mean number per pregnant female): 15
Table 9B, single oral dose of 6 mg/kg, week 1, 7 males mated
  Males fertile: 7
[16]
  Embryos abnormal (mean number per pregnant female): 0.3
  Embryos normal (mean number per pregnant female): 12
Table 9B, single oral dose of 6 mg/kg, week 2, 7 males mated
  Males fertile: 7
[17]
  Embryos abnormal (mean number per pregnant female): 2
  Embryos normal (mean number per pregnant female): 6
Table 9B, single oral dose of 6 mg/kg, week 3, 7 males mated
  Males fertile: 2
[18]
  Embryos abnormal (mean number per pregnant female): 0
  Embryos normal (mean number per pregnant female): 0
Table 9B, single oral dose of 6 mg/kg, week 4, 7 males mated
  Males fertile: 0
[19]
  Embryos abnormal (mean number per pregnant female): 0
  Embryos normal (mean number per pregnant female): 0
Table 9B, single oral dose of 6 mg/kg, week 5, 7 males mated
  Males fertile: 0
[20]
  Embryos abnormal (mean number per pregnant female): 1
  Embryos normal (mean number per pregnant female): 10
Table 9B, single oral dose of 6 mg/kg, week 6, 7 males mated
  Males fertile: 1
[21]
  Embryos abnormal (mean number per pregnant female): 0
  Embryos normal (mean number per pregnant female): 13
Table 9B, single oral dose of 6 mg/kg, week 7, 7 males mated
  Males fertile: 2
[22]
  Embryos abnormal (mean number per pregnant female): 1
  Embryos normal (mean number per pregnant female): 12
Table 9B, single oral dose of 6 mg/kg, week 8, 7 males mated
  Males fertile: 3
[23]
  Embryos abnormal (mean number per pregnant female): 0.4
  Embryos normal (mean number per pregnant female): 12
Table 9B, single oral dose of 6 mg/kg, week 9, 7 males mated
  Males fertile: 4
[24]
  Embryos abnormal (mean number per pregnant female): 1
  Embryos normal (mean number per pregnant female): 11
Table 9B, single oral dose of 6 mg/kg, week 10, 7 males mated
  Males fertile: 3
[25]
  Embryos abnormal (mean number per pregnant female): 0.1
  Embryos normal (mean number per pregnant female): 14
Table 9B, single oral dose of 6 mg/kg, week 12, 7 males mated
  Males fertile: 4
[26]
  Embryos abnormal (mean number per pregnant female): 1.0
  Embryos normal (mean number per pregnant female): 14
Table 9B, single oral dose of 6 mg/kg, week 13, 7 males mated
  Males fertile: 3
[27]
  Embryos abnormal (mean number per pregnant female): 0.7
  Embryos normal (mean number per pregnant female): 11
Table 9B, single oral dose of 6 mg/kg, week 14, 7 males mated
  Males fertile: 4
[28]
  Embryos abnormal (mean number per pregnant female): 0.7
  Embryos normal (mean number per pregnant female): 14
Table 9B, single oral dose of 6 mg/kg, week 18, 7 males mated
  Males fertile: 4
[29]
  Embryos abnormal (mean number per pregnant female): 0.6
  Embryos normal (mean number per pregnant female): 13
Table 9B, single oral dose of 6 mg/kg, week 26, 7 males mated
  Males fertile: 3
Single oral dose 0.75 MG/KG in 10% ethyl alcohol and sesame oil, week 1
  MALES MATED/MALES FERTILE: 6/6
Single oral dose 0.75 MG/KG in 10% ethyl alcohol and sesame oil, week 2
  MALES MATED/MALES FERTILE: 8/8
Single oral dose 0.75 MG/KG in 10% ethyl alcohol and sesame oil, week 3
  MALES MATED/MALES FERTILE: 6/6
Single oral dose 0.75 MG/KG in 10% ethyl alcohol and sesame oil, week 4
  MALES MATED/MALES FERTILE: 6/6
Single oral dose 0.75 MG/KG in 10% ethyl alcohol and sesame oil, week 5
  MALES MATED/MALES FERTILE: 6/6
Single oral dose 0.75 MG/KG in 10% ethyl alcohol and sesame oil, week 6
  MALES MATED/MALES FERTILE: 6/6
Single oral dose 0.75 MG/KG in 10% ethyl alcohol and sesame oil, week 7
  MALES MATED/MALES FERTILE: 6/6
Single oral dose 0.75 MG/KG in 10% ethyl alcohol and sesame oil, week 8
  MALES MATED/MALES FERTILE: 6/6
Single oral dose 1.5 MG/KG in 10% ethyl alcohol and sesame oil, week 1
  MALES MATED/MALES FERTILE: 6/5
Single oral dose 1.5 MG/KG in 10% ethyl alcohol and sesame oil, week 2
  MALES MATED/MALES FERTILE: 6/6
Single oral dose 1.5 MG/KG in 10% ethyl alcohol and sesame oil, week 3
  MALES MATED/MALES FERTILE: 6/5
Single oral dose 1.5 MG/KG in 10% ethyl alcohol and sesame oil, week 4
  MALES MATED/MALES FERTILE: 6/5
Single oral dose 1.5 MG/KG in 10% ethyl alcohol and sesame oil, week 5
  MALES MATED/MALES FERTILE: 6/6
Single oral dose 1.5 MG/KG in 10% ethyl alcohol and sesame oil, week 6
  MALES MATED/MALES FERTILE: 6/6
Single oral dose 1.5 MG/KG in 10% ethyl alcohol and sesame oil, week 7
  MALES MATED/MALES FERTILE: 6/6
Single oral dose 1.5 MG/KG in 10% ethyl alcohol and sesame oil, week 8
  MALES MATED/MALES FERTILE: 6/6
Single oral dose 1.5 MG/KG in 10% ethyl alcohol and sesame oil, week 9
  MALES MATED/MALES FERTILE: 6/6
Single oral dose 3.0 MG/KG in 10% ethyl alcohol and sesame oil, week 1
  MALES MATED/MALES FERTILE: 6/6
Single oral dose 3.0 MG/KG in 10% ethyl alcohol and sesame oil, week 2
  MALES MATED/MALES FERTILE: 6/6
Single oral dose 3.0 MG/KG in 10% ethyl alcohol and sesame oil, week 3
  MALES MATED/MALES FERTILE: 6/3
Single oral dose 3.0 MG/KG in 10% ethyl alcohol and sesame oil, week 4
  MALES MATED/MALES FERTILE: 6/2
Single oral dose 3.0 MG/KG in 10% ethyl alcohol and sesame oil, week 5
  MALES MATED/MALES FERTILE: 6/6
Single oral dose 3.0 MG/KG in 10% ethyl alcohol and sesame oil, week 6
  MALES MATED/MALES FERTILE: 6/6
Single oral dose 3.0 MG/KG in 10% ethyl alcohol and sesame oil, week 7
  MALES MATED/MALES FERTILE: 6/6
Single oral dose 3.0 MG/KG in 10% ethyl alcohol and sesame oil, week 8
  MALES MATED/MALES FERTILE: 6/6
Single oral dose 3.0 MG/KG in 10% ethyl alcohol and sesame oil, week 9
  MALES MATED/MALES FERTILE: 6/6
Single oral dose 6.0 MG/KG in 10% ethyl alcohol and sesame oil, week 1
  MALES MATED/MALES FERTILE: 7/7
Single oral dose 6.0 MG/KG in 10% ethyl alcohol and sesame oil, week 2
  MALES MATED/MALES FERTILE: 7/7
Single oral dose 6.0 MG/KG in 10% ethyl alcohol and sesame oil, week 3
  MALES MATED/MALES FERTILE: 7/2
Single oral dose 6.0 MG/KG in 10% ethyl alcohol and sesame oil, week 4
  MALES MATED/MALES FERTILE: 7/0
Single oral dose 6.0 MG/KG in 10% ethyl alcohol and sesame oil, week 5
  MALES MATED/MALES FERTILE: 7/0
Single oral dose 6.0 MG/KG in 10% ethyl alcohol and sesame oil, week 6
  MALES MATED/MALES FERTILE: 7/1
Single oral dose 6.0 MG/KG in 10% ethyl alcohol and sesame oil, week 7
  MALES MATED/MALES FERTILE: 7/2
Single oral dose 6.0 MG/KG in 10% ethyl alcohol and sesame oil, week 8
  MALES MATED/MALES FERTILE: 7/3
Single oral dose 6.0 MG/KG in 10% ethyl alcohol and sesame oil, week 9
  MALES MATED/MALES FERTILE: 7/4
Single oral dose 6.0 MG/KG in 10% ethyl alcohol and sesame oil, week 10
  MALES MATED/MALES FERTILE: 7/3
Single oral dose 6.0 MG/KG in 10% ethyl alcohol and sesame oil, week 12
  MALES MATED/MALES FERTILE: 7/4
Single oral dose 6.0 MG/KG in 10% ethyl alcohol and sesame oil, week 13
  MALES MATED/MALES FERTILE: 7/3
Single oral dose 6.0 MG/KG in 10% ethyl alcohol and sesame oil, week 14
  MALES MATED/MALES FERTILE: 7/4
